Source: US11214803B2, “Modulators of YAP1 expression” (Ionis Pharmaceuticals, Inc., priority 2019, dated 2022)
Strand notation (5' to 3'): a small letter for the sugar, then the base; units joined by * are phosphorothioate-linked, units joined directly phosphodiester-linked; [ ] holds rarer units or linkages, { } end groups; capitals alone tell only the bases. e = 2'-O-(2-methoxyethyl) (MOE); k = constrained ethyl (cEt); [5mC] = 5-methylcytosine; d = 2'-deoxy (DNA)

Tests used:
Type in all cases: cell-based
Yap1 mRNA [1] = assay: Dose-dependent inhibition of human Yap1 in A-431 cells (Example 7, 10,000 cells per well, RTS36584); conditions: free uptake
Experimental: Modified oligonucleotides described in the studies above were tested at various doses in A-431 cells. Cultured A-431 cells at a density of 10,000 cells per well were treated using free uptake with modified oligonucleotides diluted to concentrations described in the tables below. After approximately 48 hours, Yap1 mRNA levels were measured as previously described using the Human Yap1 primer-probe set RTS36584. Yap1 mRNA levels were normalized to total RNA content, as measured by RIBOGREEN®. Results are presented in the tables below as percent control of the amount of Yap1 mRNA relative to untreated control cells (% UTC). IC50s were calculated using a linear regression on a log/linear plot of the data in excel.

Yap1 mRNA [2] = assay: Dose-dependent inhibition of human Yap1 in A-431 cells (Example 8, 10,000 cells per well, RTS4814); conditions: free uptake, approximately 48 hours, RTS4814; for Yap1 mRNA, % UTC: A-431 cells, 10,000 cells per well; for IC50: A-431 cells, linear regression on log/linear plot
How it was run: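 Yap1 mRNA, normalized to RIBOGREEN total RNA and expressed as % untreated control, was read with RTS4814 about 48 h after free-uptake oligonucleotide treatment of A-431 cells at 10,000 cells/well. IC50 derived by linear regression of log/linear data.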

Yap1 mRNA [3] = assay: Dose-dependent inhibition of human Yap1 in SNU-449 cells (Example 9, RTS36584); conditions: free uptake; for % UTC (Yap1 mRNA): approximately 48 hours; for IC50: linear regression on a log/linear plot
How it was run: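 Read-out was Yap1 mRNA (primer-probe RTS36584) normalised to total RNA by RIBOGREEN, given as % of untreated cells, with IC50 fitted by linear regression of log/linear data. Oligonucleotides were dosed by free uptake to SNU-449 cells, 10,000/well, for ~48 h.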

Yap1 mRNA [4] = assay: Antisense inhibition of human Yap1 in A-431 cells by cEt gapmers, single dose (Example 3, RTS36584); conditions: Table 28; Yap1 mRNA as percent of untreated control; 3-10-3 cEt gapmers targeting SEQ ID NO.: 1, and 2
How it was run: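 Single-dose free-uptake screen of 3-10-3 cEt gapmers in A-431 cells at 2,000 nM over about 48 h. Values are % untreated control Yap1 mRNA.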

| Substance | % UTC (Yap1 mRNA) (Yap1 mRNA [3]; 31.3 nM) [% UTC] | % UTC (Yap1 mRNA) (Yap1 mRNA [3]; 125.0 nM) [% UTC] | % UTC (Yap1 mRNA) (Yap1 mRNA [3]; 500.0 nM) [% UTC] | % UTC (Yap1 mRNA) (Yap1 mRNA [3]; 2000.00 nM) [% UTC] | IC50 (Yap1 mRNA [3]) [nM] | other results |
| --- | --- | --- | --- | --- | --- | --- |
| 958799 (kA*kT*kT*dA*d[5mC]*dT*d[5mC]*dA*dA*dT*d[5mC]*dA*dT*kG*kG*kT; antisense) [compound 958799] |  |  |  |  |  | Yap1 mRNA, % UTC (Yap1 mRNA [1]; Table 61, 15.6 nM, A-431 cells 10,000 cells per well, 48 hours): 88 % UTC; Yap1 mRNA, % UTC (Yap1 mRNA [1]; Table 61, 62.5 nM, A-431 cells 10,000 cells per well, 48 hours): 53 % UTC; Yap1 mRNA, % UTC (Yap1 mRNA [1]; Table 61, 4000.00 nM, A-431 cells 10,000 cells per well, 48 hours): 10 % UTC; IC50 (Yap1 mRNA [1]; Table 61, A-431 cells 10,000 cells per well): 100 nM |
| 958518 (k[5mC]*k[5mC]*kA*d[5mC]*dA*dG*dT*dA*dA*dT*dA*dG*d[5mC]*kT*k[5mC]*kT; antisense) [compound 958518] |  |  |  |  |  | Yap1 mRNA, % UTC (Yap1 mRNA [1]; Table 59, 15.6 nM, A-431 cells 10,000 cells per well, 48 hours): 95 % UTC; Yap1 mRNA, % UTC (Yap1 mRNA [1]; Table 59, 62.5 nM, A-431 cells 10,000 cells per well, 48 hours): 55 % UTC; Yap1 mRNA, % UTC (Yap1 mRNA [1]; Table 59, 4000.00 nM, A-431 cells 10,000 cells per well, 48 hours): 4 % UTC; IC50 (Yap1 mRNA [1]; Table 59, A-431 cells 10,000 cells per well): 100 nM |
| 958537 (k[5mC]*kA*kG*dG*dG*dT*d[5mC]*dA*dA*dT*dT*dT*dT*k[5mC]*kA*kG; antisense) [compound 958537] |  |  |  |  |  | Yap1 mRNA, % UTC (Yap1 mRNA [1]; Table 58, 15.6 nM, A-431 cells 10,000 cells per well, 48 hours): 100 % UTC; Yap1 mRNA, % UTC (Yap1 mRNA [1]; Table 58, 62.5 nM, A-431 cells 10,000 cells per well, 48 hours): 56 % UTC; Yap1 mRNA, % UTC (Yap1 mRNA [1]; Table 58, 4000.00 nM, A-431 cells 10,000 cells per well, 48 hours): 11 % UTC; IC50 (Yap1 mRNA [1]; Table 58, A-431 cells 10,000 cells per well): 100 nM |
| 958625 (kT*kG*k[5mC]*dT*dG*dG*dG*dA*dT*dT*dG*dA*dT*kA*kT*kT; antisense) [compound 958625] |  |  |  |  |  | Yap1 mRNA, % UTC (Yap1 mRNA [1]; 15.6 nM, A-431 cells, 10,000 cells per well, approximately 48 hours): 86 % UTC; Yap1 mRNA, % UTC (Yap1 mRNA [1]; 62.5 nM, A-431 cells, 10,000 cells per well, approximately 48 hours): 59 % UTC; Yap1 mRNA, % UTC (Yap1 mRNA [1]; 4000.00 nM, A-431 cells, 10,000 cells per well, approximately 48 hours): 17 % UTC; IC50 (Yap1 mRNA [1]; A-431 cells, approximately 48 hours, linear regression on log/linear plot): 100 nM |
| 1074728 (antisense kT*kG*kA*dG*dG*dT*dA*dT*dA*dA*d[5mC]*dT*dG*kG*kG*k[5mC]) [compound 1074728] | 69 | 45 | 19 | 8 | 100 | Yap1 mRNA, % UTC (Yap1 mRNA [2]; 31.3 nM): 28 % UTC; Yap1 mRNA, % UTC (Yap1 mRNA [2]; 125.0 nM): 7 % UTC; Yap1 mRNA, % UTC (Yap1 mRNA [2]; 500.0 nM): 4 % UTC; Yap1 mRNA, % UTC (Yap1 mRNA [2]; 2000.00 nM): 4 % UTC; IC50 (Yap1 mRNA [2]): < 20 nM |
| 1074464 (kT*kT*kA*dG*dA*dG*dT*dA*dT*dG*dT*dG*dG*k[5mC]*kA*kA) [compound 1074464] | 109 | 50 | 19 | 6 | 200 | Yap1 mRNA, % UTC (Yap1 mRNA [2]; 31.3 nM): 25 % UTC; Yap1 mRNA, % UTC (Yap1 mRNA [2]; 125.0 nM): 6 % UTC; Yap1 mRNA, % UTC (Yap1 mRNA [2]; 500.0 nM): 3 % UTC; Yap1 mRNA, % UTC (Yap1 mRNA [2]; 2000.00 nM): 3 % UTC; IC50 (Yap1 mRNA [2]): < 20 nM |
| 1198297 (kA*kT*kT*dA*dG*dA*dG*dT*dA*dT*dG*dT*kG*eG*k[5mC]*eA) [compound 1198297] | 67 | 42 | 16 | 7 | 100 |  |
| 1074798 (kG*k[5mC]*kT*dT*dT*dG*dG*dA*dA*dG*dA*dT*d[5mC]*kT*kG*kA) [compound 1074798] | 62 | 38 | 17 | 8 | 100 | YAP1 (% UTC) (Yap1 mRNA [4]): 4 % UTC; Yap1 mRNA, % UTC (Yap1 mRNA [2]; 31.3 nM): 34 % UTC; Yap1 mRNA, % UTC (Yap1 mRNA [2]; 125.0 nM): 12 % UTC; Yap1 mRNA, % UTC (Yap1 mRNA [2]; 500.0 nM): 5 % UTC; Yap1 mRNA, % UTC (Yap1 mRNA [2]; 2000.00 nM): 6 % UTC; IC50 (Yap1 mRNA [2]): < 20 nM |
| 1198409 (kA*dG*dT*dG*d[5mC]*dT*dT*dT*dG*dG*dA*kA*eG*kA*eT*k[5mC]; antisense) [compound 1198409] | 100 | 68 | 45 | 27 | 400 |  |
| 1198412 (kT*dT*dA*dG*dG*dA*dT*dG*d[5mC]*dA*dT*kG*eG*kT*eT*kT; antisense) [compound 1198412] | 73 | 54 | 33 | 15 | 200 |  |
| 1198616 (kT*kT*kT*dA*dA*dA*dG*dT*dG*dT*dA*dT*kG*kT*k[5mC]*eA; antisense) [compound 1198616] | 78 | 46 | 18 | 5 | 100 |  |
